# Data reported in the supplement of paper PMC10307832.
# Experiments:
# Assay in all cases: relative viability (nuclei count vs DMSO), 5 days (fraction); higher = more cells survive
# Selumetinib + Bortezomib = compound: Cn1cnc2c(F)c(Nc3ccc(Br)cc3Cl)c(C(=O)NOCCO)cc21 [Selumetinib] + CC(C)C[C@H](NC(=O)[C@H](Cc1ccccc1)NC(=O)c1cnccn1)B(O)O [Bortezomib] (partner 0.002 µM)
# Procedure, shortened: (§1)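 Relative viability is defined as nuclei in treated wells over nuclei in vehicle wells. Duplicate plates were run and medians reported. Lung cancer cell lines in 1536-well plates were dosed by pin tool one day after seeding, with one drug or with a fixed anchor-drug dose plus five library-drug doses (not always all listed) in √10 steps, and nuclei were counted after 5 days.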
# Selumetinib + Linsitinib = compound: Cn1cnc2c(F)c(Nc3ccc(Br)cc3Cl)c(C(=O)NOCCO)cc21 [Selumetinib] + C[C@]1(O)C[C@@H](c2nc(-c3ccc4ccc(-c5ccccc5)nc4c3)c3c(N)nccn32)C1 [Linsitinib] (partner 1 µM)
# Procedure, shortened: as §1
# Venetoclax + Tozasertib = compound: CC1(C)CCC(CN2CCN(c3ccc(C(=O)NS(=O)(=O)c4ccc(NCC5CCOCC5)c([N+](=O)[O-])c4)c(Oc4cnc5[nH]ccc5c4)c3)CC2)=C(c2ccc(Cl)cc2)C1 [Venetoclax] + Cc1cc(Nc2cc(N3CCN(C)CC3)nc(Sc3ccc(NC(=O)C4CC4)cc3)n2)n[nH]1 [Tozasertib] (partner 0.1 µM)
# Procedure, shortened: as §1
# Selumetinib + Foretinib = compound: Cn1cnc2c(F)c(Nc3ccc(Br)cc3Cl)c(C(=O)NOCCO)cc21 [Selumetinib] + COc1cc2c(Oc3ccc(NC(=O)C4(C(=O)Nc5ccc(F)cc5)CC4)cc3F)ccnc2cc1OCCCN1CCOCC1 [Foretinib] (partner 0.25 µM)
# Procedure, shortened: as §1
Cell Line,relative viability (Selumetinib + Bortezomib; first compound 0.02 µM),relative viability (Selumetinib + Bortezomib; first compound 0.06325 µM),relative viability (Selumetinib + Bortezomib; first compound 0.2 µM),relative viability (Selumetinib + Bortezomib; first compound 0.6325 µM),relative viability (Selumetinib + Linsitinib; first compound 0.02 µM),relative viability (Selumetinib + Linsitinib; first compound 0.06325 µM),relative viability (Selumetinib + Linsitinib; first compound 0.2 µM),relative viability (Selumetinib + Linsitinib; first compound 0.6325 µM),relative viability (Venetoclax + Tozasertib; first compound 0.01 µM),relative viability (Venetoclax + Tozasertib; first compound 0.03162 µM),relative viability (Venetoclax + Tozasertib; first compound 0.1 µM),relative viability (Venetoclax + Tozasertib; first compound 0.3162 µM),relative viability (Venetoclax + Tozasertib; first compound 1 µM),relative viability (Selumetinib + Foretinib; first compound 0.02 µM),relative viability (Selumetinib + Foretinib; first compound 0.06325 µM),relative viability (Selumetinib + Foretinib; first compound 0.2 µM),relative viability (Selumetinib + Foretinib; first compound 0.6325 µM)
RERF-LC-KJ,1.05,1.01,0.92,0.944,0.828,0.949,0.862,0.796,0.444,0.504,0.533,0.45,0.443,0.87,0.901,0.853,0.819
NCI-H3122,0.896,0.811,0.779,0.78,0.933,0.817,0.766,0.728,0.422,0.565,0.357,0.392,0.405,0.866,0.774,0.719,0.583
NCI-H2347,0.755,0.817,0.6,0.45,0.748,0.633,0.47,0.436,0.581,0.634,0.476,0.597,0.541,0.93,0.704,0.451,0.421
NCI-H1651,1.08,0.861,0.873,0.818,0.973,0.962,0.815,0.902,0.751,0.681,0.636,0.639,0.599,0.758,0.731,0.67,0.673
EKVX,0.858,0.795,0.543,0.748,0.864,0.912,0.749,0.711,0.403,0.392,0.435,0.324,0.309,0.724,0.675,0.517,0.568
NCI-H1437,0.486,0.378,0.316,0.276,0.905,0.714,0.423,0.277,0.392,0.426,0.408,0.376,0.336,1.33,1.3,1.17,0.708
NCI-H23,1.34,0.967,0.721,0.965,0.585,0.53,0.43,0.369,0.492,0.347,0.368,0.323,0.418,0.952,0.916,0.654,0.612
EPLC-272H,0.966,0.864,0.779,0.567,0.968,1.09,0.848,1.06,0.339,0.391,0.311,0.452,0.336,0.593,0.467,0.367,0.333
H3255,0.82,0.801,0.761,0.962,0.974,0.899,0.918,0.825,0.564,0.525,0.615,0.591,0.745,0.867,0.921,0.457,0.739
SK-LU-1,1.25,1.28,0.918,0.715,0.897,1.06,0.903,0.625,0.341,0.316,0.275,0.336,0.286,0.762,0.778,0.711,0.449
NCI-H727,0.58,0.351,0.359,0.337,0.17,0.207,0.168,0.166,0.765,0.61,0.496,0.58,0.58,0.468,0.434,0.329,0.352
PC-3 [JPC-3],0.822,0.813,0.669,0.551,0.95,0.876,0.92,0.727,0.841,0.909,0.816,0.88,0.853,0.944,0.92,0.922,0.713
COR-L 105,0.813,0.477,0.609,0.567,1,0.828,0.606,0.623,0.274,0.397,0.321,0.32,0.335,0.978,1.1,0.846,0.534
NCI-H322M,1.05,1.22,1.01,0.98,0.717,0.608,0.67,0.626,0.495,0.477,0.477,0.555,0.493,0.853,0.782,0.704,0.757
NCI-H838,0.695,0.59,0.679,0.513,0.883,0.848,0.807,0.735,0.254,0.246,0.303,0.238,0.239,0.907,0.915,0.859,0.796
NCI-H1993,0.861,0.897,0.873,0.806,0.746,0.688,0.754,0.878,0.588,0.561,0.614,0.58,0.607,0.663,0.744,0.745,0.671
CAL-12T,0.768,0.935,0.849,0.772,0.821,0.762,0.663,0.588,0.302,0.346,0.28,0.222,0.19,1.05,1.04,1.14,0.839
